Structures can show the parent of a compound that is named as a salt. One block for each molecule: values may come before it.
Assays:
[1] = In vitro release study of glutathione, dialysis set up; type: physicochemical; settings: after 7 h, pH 7.4
Description: The comparative in vitro release study of glutathione encapsulated in the inventive liposome and non-encapsulated glutathione (control) was performed using the dialysis set up. […] A control experiment was performed simultaneously in which the non-encapsulated glutathione solution was dialyzed. […] The concentration of glutathione in the samples was determined using the validated HPLC method.
The mobile phase consisted of 50 mM phosphate buffer. The injection volume was 5 μL. The detection was carried out at 230 nm.

[2] = Comparative oral bioavailability of vitamin C, crossover study in healthy volunteers; settings: human, in vivo
Description: The inventive liposome comprised at least 40% w/w Vitamin C.
A group of 12 healthy volunteers were screened on Visit 1 to confirm their eligibility. Subjects fulfilling the eligibility criteria were randomized into 1 of 2-treatment sequences on Visit 2. There was a washout period of 7 days each between the 2 dosing days. […] Subjects returned to the study center for the second period. On the morning of Day 1, in each period, subjects in a fasting state (at least 10 hours before dosing) received one 600 mg capsule orally of their assigned formulation (Table 2) as per randomization scheme, with 200±2 mL of water at room temperature. The study duration was approximately 12 days (2 dosing days and 1 washout period of 7±1 days). A total of 10 blood samples were collected in each of the two study periods. The pre-dose samples (2 mL) were collected within 1 hour before dosing. The post-dose samples (1×2 mL) were collected at 30 min, 60 min, 2, 3, 4, 5, 6, 8 and 12 hours after dosing in vacuum tubes containing K2 EDTA. All blood samples were collected from an ante-cubital vein or any suitable forearm vein using an indwelling cannula. Before each blood sample is drawn, 1 mL of blood was discarded so as to prevent the saline diluted blood and heparin from interfering with the analysis.
Plasma concentrations were measured using ultra performance liquid chromatographyelectrospray ionization-tandem mass spectrometry (UPLC-ESI-MS/MS), gas chromatography mass spectrometry (GC-MS/MS) and High-Performance Liquid Chromatography (HPLC). All the pharmacokinetic parameters were compared between the two treatment groups using Pair-t-test with 5% level of significance. All statistical analysis was performed using R statistical software version 4.2.1.

[3] = In vitro release study of berberine, dialysis set up; type: physicochemical; settings: after 6 h, pH 7.4
[4] = Pharmacokinetic study of berberine after single oral dose; type: in vivo, Wistar rats; settings: male, Wistar, berberine in rat plasma
[5] = In vitro release study of vitamin C, dialysis set up; type: physicochemical; settings: after 8 h, PBS pH 7.4, 37° C.
Description: The comparative in vitro release study of vitamin C encapsulated in the inventive liposome versus and non-encapsulated vitamin C (control) was performed using the dialysis set up. […] A weighed quantity of encapsulated vitamin C (50 mg) was suspended in 10 mL of PBS and transferred into the dialysis bag (donor compartment). […] A control experiment was performed simultaneously in which unencapsulated vitamin C solution was dialyzed. […] The absorbance of the samples was measured at 295 nm. The concentration of vitamin C in the samples was determined using a standard curve.

[6] = after 3 h; dialysis, PBS pH 7.4, 37° C.
Description: The comparative in vitro release study of caffeine encapsulated in the inventive liposome versus plain caffeine (control) was performed using a dialysis set up. Prior to the diffusion experiment, the cellulose acetate dialysis membrane (Sigma Aldrich, Molecular weight cut-off (MWCO) 12 kDa) was soaked in phosphate buffered saline (PBS, pH 7.4) for 12 h. A weighed quantity of liposomal caffeine (50 mg) was suspended in 10 mL of PBS and transferred into the dialysis bag (donor compartment). The dialysis bag was placed in a beaker containing 100 mL of PBS (receptor compartment). The setup was incubated at 120 rpm for 8 h in a 37° C. shaker incubator.
A control experiment was performed simultaneously in which a plain caffeine solution was dialyzed. A 1 mL aliquot of PBS in the receptor compartment was sampled at different time points and an equal quantity of fresh PBS was replaced in the compartment after each withdrawal. The caffeine content in the samples were quantified using HPLC.

in vivo = settings: male, Wistar, rat, plasma, po, 60 mg/kg
[7] = Pharmacokinetics of ursolic acid after single oral dose; settings: ursolic acid in rat plasma

glutathione cumulative release % [1]: 96.86%
Structure (SMILES): N[C@@H](CCC(=O)N[C@@H](CS)C(=O)NCC(=O)O)C(=O)O [non-encapsulated glutathione, glutathione]

AUC(0-inf) [2]: 6260 ± 4560 ng·h/mL
AUC(0-t) [2]: 4130 ± 1740 ng·h/mL
Cmax [2]: 970 ng/mL
MRT [2]: 9.3 ± 8.42 h
Tmax [2]: 2.67 ± 1.07 h
Plasma concentration of vitamin C, Mean ([2]; 0.5 h): 219.99
Plasma concentration of vitamin C, Mean ([2]; 1 h): 502.39
Plasma concentration of vitamin C, Mean ([2]; 2 h): 728.44
Plasma concentration of vitamin C, Mean ([2]; 3 h): 680.46
Plasma concentration of vitamin C, Mean ([2]; 4 h): 456.28
Plasma concentration of vitamin C, Mean ([2]; 5 h): 405.53
Plasma concentration of vitamin C, Mean ([2]; 6 h): 338.54
Plasma concentration of vitamin C, Mean ([2]; 8 h): 219.14
Plasma concentration of vitamin C, Mean ([2]; 12 h): 162.08
Structure (SMILES): O=C1O[C@H]([C@@H](O)CO)C(O)=C1O [unformulated Vitamin C, vitamin C]

berberine cumulative release % [3]: 100%
AUC(0-t) ([4]; 320 mg/kg, single oral dose): 410 ± 40 ng·h/mL
Tmax ([4]; 320 mg/kg, single oral dose): 0.25 h
half-life ([4]; 320 mg/kg, single oral dose, read-out: t½ (converted)): 7.32 ± 0.61 h
Cmax ([4]; single oral dose (600 mg/kg encapsulated; 320 mg/kg berberine HCl)): 15.5 ± 9.66 ng/mL
Structure (SMILES): COc1ccc2cc3[n+](cc2c1OC)CCc1cc2c(cc1-3)OCO2 [Control (Unformulated), berberine HCl]

vitamin C released [5]: 67.54%
caffeine released [6]: 100%
AUC(0-t) (in vivo): 877 ± 44.6 ng·h/mL
Cmax (in vivo): 201 ± 42.4 ng/mL
Tmax (in vivo): 0.75 ± 0.35 h
half-life (in vivo): 4.49 ± 0.11 h
Kel [7]: 0.15 ± 0.004 h⁻¹
maximum plasma concentration of UA [7]: 201 ± 42.43 ng/mL
Kel ([7]; listed as control): 0.15 ± 0.004 h⁻¹
Structure (SMILES): C[C@H]1[C@H](C)CC[C@]2(C(=O)O)CC[C@]3(C)C(=CC[C@@H]4[C@@]5(C)CC[C@H](O)C(C)(C)[C@@H]5CC[C@]43C)[C@H]12 [Control, ursolic acid]
